# Measurements as given in US9643950B2, “Solid forms of {s-3-(4-amino-1-oxo-isoindolin-2-yl)(piperidine-3,4,4,5,5-d5)-2,6-dione}” (Concert Pharmaceuticals, Inc., priority 2012, dated 2017).
# Entries after “also recorded” stand apart in the source; their conditions may differ. Like-named read-outs stand apart in the source and are kept apart here.
# Tests used:
# Assay type in all cases: physicochemical
# [1] = Physical (solid form) stability on storage or stirring, by PXRD; conditions: for Physical stability by PXRD: 40° C./75% RH for 6 days
# Protocol: PXRD diffractograms were acquired using PANalytical X'Pert Pro diffractometer on Si zero-background wafers. All diffractograms were collected using a monochromatic Cu Kα (45 kV/40 mA) radiation and a step size of 0.02° 2θ.
# Form 1 is a crystalline powder with a PXRD pattern indicated at FIG. 1. FT-Raman (FIG. 2) and FT-IR Spectra (FIG. 3) were also collected. […] HPLC analysis indicated high purity of the material (>99.9% AUC). […] (FIG. 4). The PXRD diffractogram of the material heated past the exothermic event (heating to 261° C. followed by isothermal hold for 7 min) indicates a racemization of D-(S)-lenalidomide, as confirmed by chiral HPLC analyses of a reference material. […] This conclusion is based on two simultaneously run experiments. In one experiment, […] was exposed to 40° C./75% RH. […] Moreover, even this formation of Form 3 may have been at least in part the result of condensation inside of the RH chamber towards the end of the experiment, as a result of which Form 1 became slightly wet.
# PXRD (FIG. 6) and PLM microscopy analyses indicate Form 2 to be partially crystalline and phase-impure with amorphous content. Thermal analyses confirmed that the material loses 4.3% wt. upon heating up to 160° C. (FIG. 8). IR analysis of the volatile component released upon heating confirmed water. The loss of water corresponds to broad endothermic (50-100° C.) and exothermic (120-160° C.) events on the DSC trace (FIG. 8), indicating potential dehydration and crystallization, respectively. An FT-Raman spectrum is provided at FIG. 7.
# [2] = Visually estimated solubility of Form 1 in an array of solvents
# Protocol: Solubility of Form 1 was visually estimated in an array of different solvents. […] Where applicable, the undissolved solids were analyzed by PXRD to verify crystal form. The data are shown in and indicate that the solubility of Form 1 to be relatively low in water and common organic solvents, (<6 mg/mL), very high in dimethylsulfoxide (DMSO; >400 mg/mL), and moderate in water- or DMSO-containing binary solvent systems.
# Solubility of Form 1 was visually estimated in an array of diverse solvents. […] Where applicable, the undissolved solids were analyzed by PXRD to verify crystal form. The data are shown in Table 2 and indicate that the solubility of Form 1 is relatively low in water and common organic solvents, (<6 mg/mL), very high in dimethylsulfoxide (DMSO; >400 mg/mL), and moderate in water- or DMSO-containing binary solvent systems.
# [3] = Relative stability of Forms 1 and 3 in water/organic mixtures (seeded suspensions)
# Protocol: A series of experiments were conducted to assess the relative stability of Forms 1 and 3. […] The suspensions were each seeded with a small amount of Form 3 (˜1 mg) and stirred until a complete form conversion occurred.
# [4] = Dynamic vapor sorption (DVS) hygroscopicity
# Protocol: DVS experiments were conducted on a Surface Measurement Systems DVS-HT at 25° C. The instrument was operated in step mode and the relative humidity was increased in 10% RH increments from 40% RH to 90% RH, then decreased from 90% RH to 0% RH, then increased from 0% RH to 90% RH, then decreased from 90% RH to 0% RH. An extra step at 75% RH was included in each cycle. The mass equilibrium criterion was set at 0.005% change in mass over time (dm/dt) prior to each humidity level. A minimum step time of 10 minutes and a maximum step time of 240 minutes were specified.
# [5] = HPLC analysis of degradation; conditions: material from rapid evaporation of methanol solution (rotovapped at 65° C.)
# Protocol: HPLC analyses were conducted with an HP1100 system equipped with a G1131 Quad pump, G1367A autosampler, and G1315B diode array detector. Column: Luna C18(2) (50×2.0 mm, 3 μm). Mobile phase: 100% vol. water (0.05% vol. TFA) to 95% acetonitrile (0.05% vol. TFA) over 8 min and 2 min re-equilibration. Flow rate: 1 mL/min. Detection: 254 nm.
smiles,measurement,setting,value
"[2H]C1([2H])C(=O)NC(=O)[C@@]([2H])(N2Cc3c(N)cccc3C2=O)C1([2H])[2H] (single isomer, unassigned) [Form 1, 3-(4-amino-1-oxoisoindolin-2-yl)(piperidine-3,4,4,5,5-d5)-2,6-dione]",Physical stability by PXRD,[1],"physically stable; also recorded: Form 1 as the major component, with only a trace of Form 3 being formed"
same,Residual Solid (crystal form of undissolved solids by PXRD),"[2]; 1,4-Dioxane",Form 1
same,solubility,"[2]; 1,4-dioxane, 40 °C, organic solvent or mixture, thermodynamic from solid, read-out: Solubility at 40° C.",> 6000 µg/mL
same,Residual Solid (crystal form of undissolved solids by PXRD),[2]; 2-Propanol,Form 1
same,solubility,"[2]; 2-propanol, 40 °C, organic solvent or mixture, thermodynamic from solid, read-out: Solubility at 40° C.",< 1000 µg/mL
same,Solubility at RT,"[2]; DMSO, 20° C.",>400000 µg/mL
same,Residual Solid (crystal form of undissolved solids by PXRD),[2]; Dichloromethane,Form 1
same,Residual Solid (crystal form of undissolved solids by PXRD),[2]; Ethyl Acetate,Form 1
same,Residual Solid (crystal form of undissolved solids by PXRD),[2]; Heptane,Form 1
same,Residual Solid (crystal form of undissolved solids by PXRD),[2]; Toluene,Form 1
same,solubility,"[2]; dichloromethane, 40 °C, organic solvent or mixture, thermodynamic from solid, read-out: Solubility at 40° C.",< 1000 µg/mL
same,solubility,"[2]; ethyl acetate, 40 °C, organic solvent or mixture, thermodynamic from solid, read-out: Solubility at 40° C.",< 1000 µg/mL
same,solubility,"[2]; heptane, 40 °C, organic solvent or mixture, thermodynamic from solid, read-out: Solubility at 40° C.",< 1000 µg/mL
same,solubility,"[2]; organic solvent or mixture, thermodynamic from solid, 1,4-Dioxane, 20° C., read-out: Solubility at RT",< 1000 µg/mL
same,solubility,"[2]; organic solvent or mixture, thermodynamic from solid, 2-Propanol: 10% vol. DMSO, 20° C., read-out: Solubility at RT",1000 to 10000 µg/mL
same,solubility,"[2]; organic solvent or mixture, thermodynamic from solid, 2-Propanol, 20° C., read-out: Solubility at RT",< 1000 µg/mL
same,solubility,"[2]; organic solvent or mixture, thermodynamic from solid, Acetone, 20° C., read-out: Solubility at RT",1000 to 6000 µg/mL
same,solubility,"[2]; organic solvent or mixture, thermodynamic from solid, Acetonitrile: 10% vol. DMSO, 20° C., read-out: Solubility at RT",10000 to 30000 µg/mL
same,solubility,"[2]; organic solvent or mixture, thermodynamic from solid, Acetonitrile: 10% vol. Water, 20° C., read-out: Solubility at RT",14000 to 17000 µg/mL
same,solubility,"[2]; organic solvent or mixture, thermodynamic from solid, Acetonitrile, 20° C., read-out: Solubility at RT",1000 to 6000 µg/mL
same,solubility,"[2]; organic solvent or mixture, thermodynamic from solid, DMSO, 20° C., read-out: Solubility at RT",> 400000 µg/mL
same,solubility,"[2]; organic solvent or mixture, thermodynamic from solid, Dichloromethane, 20° C., read-out: Solubility at RT",< 1000 µg/mL
same,solubility,"[2]; organic solvent or mixture, thermodynamic from solid, Ethyl Acetate, 20° C., read-out: Solubility at RT",< 1000 µg/mL
same,solubility,"[2]; organic solvent or mixture, thermodynamic from solid, Heptane, 20° C., read-out: Solubility at RT",< 1000 µg/mL
same,solubility,"[2]; organic solvent or mixture, thermodynamic from solid, Methanol: 5% vol. Water, 20° C., read-out: Solubility at RT",1000 to 10000 µg/mL
same,solubility,"[2]; organic solvent or mixture, thermodynamic from solid, Methanol: 10% vol. Water, 20° C., read-out: Solubility at RT",1000 to 10000 µg/mL
same,solubility,"[2]; organic solvent or mixture, thermodynamic from solid, Methanol, 20° C., read-out: Solubility at RT",1000 to 6000 µg/mL
same,solubility,"[2]; organic solvent or mixture, thermodynamic from solid, Tetrahydrofuran, 20° C., read-out: Solubility at RT",1000 to 6000 µg/mL
same,solubility,"[2]; organic solvent or mixture, thermodynamic from solid, Toluene, 20° C., read-out: Solubility at RT",< 1000 µg/mL
same,solubility,"[2]; thermodynamic from solid, Water, 20° C., read-out: Solubility at RT",1000 to 6000 µg/mL
same,solubility,"[2]; thermodynamic from solid, water and common organic solvents, 20° C., read-out: Solubility",< 6000 µg/mL
same,solubility,"[2]; toluene, 40 °C, organic solvent or mixture, thermodynamic from solid, read-out: Solubility at 40° C.",< 1000 µg/mL
same,solubility,"[2]; water- or DMSO-containing binary solvent systems, 20° C.",moderate
same,Produced Crystal Form,"[3]; 1,4-Dioxane:Water 90:10% vol., water activity 0.7, 5 °C, seeded with Form 3",Form 3
same,Produced Crystal Form,"[3]; 1,4-Dioxane:Water 90:10% vol., water activity 0.7, 20 °C, seeded with Form 3",Form 1
same,Produced Crystal Form,"[3]; 1,4-Dioxane:Water 96.5:3.5% vol., water activity 0.5, 7 °C, seeded with Form 3",Form 1
same,Produced Crystal Form,"[3]; 1,4-Dioxane:Water 96.5:3.5% vol., water activity 0.5, 20 °C, seeded with Form 3",Form 1
same,Produced Crystal Form,"[3]; 1,4-Dioxane:Water 99:1% vol., water activity 0.2, 20 °C, seeded with Form 3",Form 1
same,Water activity (αw) at which the form is the more stable,[3]; 20° C.,< 0.7
same,Produced Crystal Form,"[3]; Water, water activity 1.0, 5 °C, Form 1 suspension seeded with Form 3",Form 3
same,Produced Crystal Form,"[3]; Water, water activity 1.0, 20 °C, Form 1 suspension seeded with Form 3",Form 3
same,Water activity (αw) at which the form is the more stable,"[3]; lower temperatures (5, and 7° C.)",< 0.5
same,DVS weight gain,"[4]; between 0-90% RH, 25° C.",< 0.65 wt. %
[2H]C1([2H])C(=O)NC(=O)[C@@]([2H])(N2Cc3c(N)cccc3C2=O)C1([2H])[2H] [Amorphous D-(S)-lenalidomide],Degradation by HPLC,[5],2.5 % AUC
[2H]C1([2H])C(=O)NC(=O)[C@@]([2H])(N2Cc3c(N)cccc3C2=O)C1([2H])[2H] [Form 2],Time physically stable,[1],at least 24 hrs
same,Form conversion on storage,"[1]; closed vial at room temperature, within 3 weeks",converts to a mixture of Forms 1 and 3; also recorded: converted to Forms 1 and 3
same,Form obtained upon stirring in water,"[1]; water, 12 hr at 5° C.",Form 3 formed
[2H]C1([2H])C(=O)NC(=O)[C@@]([2H])(N2Cc3c(N)cccc3C2=O)C1([2H])[2H] [Form 3],Physical stability by PXRD,[1],about half of the solid converted to Form 1; also recorded: partial conversion to Form 1
same,Time physically stable,[1]; stored in a closed vial,at least 3 weeks
same,Water activity (αw) at which the form is the more stable,[3]; 20° C.,> 0.7
same,DVS behaviour,[4]; below 20% relative humidity,dehydrate and re-hydrate with a relatively small hysteresis
same,DVS weight change,"[4]; between 20-90% relative humidity, room temperature",no weight change
same,PXRD of residual solid after DVS,[4]; equilibrated at 0% RH for four hours,no change in solid form
